Results: the NIST ThermoML archive (doi:10.1016/j.tca.2018.08.012)
± gives the expanded uncertainty stated by the source.

Settings: DSC

Row | Triple point temperature (Crystal 1) | Triple point temperature (Crystal 2) | Triple point temperature (Crystal) | Structure (SMILES)
1 | 406.15 ± 10 K | 390.15 ± 10 K |  | Cc1cc(C)c2c(c1)CN(c1ccc(Cc3ccc(N4COc5c(C)cc(C)cc5C4)cc3)cc1)CO2
2 |  |  | 435.15 ± 10 K | Cc1ccc2c(c1)OCN(c1ccc(Cc3ccc(N4COc5cc(C)ccc5C4)cc3)cc1)C2
3 | 432.15 ± 10 K |  |  | Cc1ccc2c(c1)CN(c1ccc(Cc3ccc(N4COc5ccc(C)cc5C4)cc3)cc1)CO2
4 | 357.15 ± 10 K | 328.15 ± 10 K |  | c1ccc2c(c1)CN(c1ccc(Cc3ccc(N4COc5ccccc5C4)cc3)cc1)CO2 [bis(4-(2H-benzo[e][1,3]oxazin-3(4H)-yl)phenyl)methane]
